“Also recorded” adds a separate entry of the source. Where two headings read alike, the source gives them in different places.
Legend:
CEM cell line = experiment: DNS cytotoxicity assay, CEM; format: cell-based, human
Source text: […] […] After treatment, images were acquired and analyzed to determine percentages of live/dead cells and their cytotoxicity. […] The Hs-27 non-cancerous human foreskin fibroblast cell line was used for comparison purposes.

MDA-MB231 = experiment: DNS cytotoxicity assay, MDA-MB-231; format: cell-based; details: Homo sapiens, Table 4, Breat Cancer, 72 hrs, read-out: CC50 MDA-MB231
Method: (§1) Since the non-adherent (free floating) lymphoma/leukemia cell lines divide faster than the adherent cell lines, they were incubated for a shorter period (48 h) of time with the compound.
(§2) Lymphoma/leukemia cell lines, which grow in suspension, were incubated for 48 h with the compounds. […] After treatment, images were acquired and analyzed to determine percentages of live/dead cells and their cytotoxicity. […] The Hs-27 non-cancerous human foreskin fibroblast cell line was used for comparison purposes.

[1] = DNS cytotoxicity assay, HS-27 non-cancerous fibroblast; format: cell-based; details: human, Hs-27 non-cancerous foreskin fibroblast cells; Table 4; Normal Fibroblast; 72 hrs; read-out: CC50 HS27
Method: as §1, §2

RAMOS = experiment: DNS cytotoxicity assay, RAMOS; format: cell-based; details: Homo sapiens, Lymphoma-Leukemia, 48 hrs
Source text: (§3) Using the high throughput Differential Nuclear Staining (DNS) screening assay (Lema et al., Current Cellular Biochemistry 1, 1-14, 2011) 15 pyrazole compounds were synthesized and screened on the human T-cell Acute Lymphoblastic Leukemia CEM cell line (Tables 1 and 2). […] The compounds were synthesized based on a pyrazole backbone structure previously determined to have potent cytotoxic activity (FIG. 5). Several commercial and non-commercial analogues (see Table 3) have been tested and determined that the ones with highest activity have a similar structure circled in FIG. 5. […] SSK-3 has been tested on a few cancer cell lines (see Table 4) and also found to induce programmed cell death via a variety of biochemical assays. […] Since the non-adherent (free floating) lymphoma/leukemia cell lines divide faster than the adherent cell lines, they were incubated for a shorter period (48 h) of time with the compound.
(§4) SSK-3 has potent cytotoxic activity against a panel of human cancer cell lines. The cytotoxic activity of SSK-3 was examined by the DNS assay (Lema et al., Current Cellular Biochemistry 1, 1-14, 2011). Lymphoma/leukemia cell lines, which grow in suspension, were incubated for 48 h with the compounds. […] After treatment, images were acquired and analyzed to determine percentages of live/dead cells and their cytotoxicity. […]

HL-60 = experiment: DNS cytotoxicity assay, HL-60; format: cell-based; details: Homo sapiens, Lymphoma-Leukemia, 48 hrs
Source text: as §3, §4

Jurkat = experiment: DNS cytotoxicity assay, Jurkat; format: cell-based, human
Source text: as §3
SSK-3 has potent cytotoxic activity against a panel of human cancer cell lines. The cytotoxic activity of SSK-3 was examined by the DNS assay (Lema et al., Current Cellular Biochemistry 1, 1-14, 2011). Lymphoma/leukemia cell lines, which grow in suspension, were incubated for 48 h with the compounds. Since the adherent cells generally divide at a slower rate than the non-adherent cell lines, the MDA-MB231, HCC1419, T47D, COLO205, PANC-1, A-549 adherent cancer cells lines were incubated for 72 h in the presence of the compounds. After treatment, images were acquired and analyzed to determine percentages of live/dead cells and their cytotoxicity. […] The Hs-27 non-cancerous human foreskin fibroblast cell line was used for comparison purposes.

NALM-6 = experiment: DNS cytotoxicity assay, NALM-6; format: cell-based; details: Homo sapiens, Lymphoma-Leukemia, 48 hrs
Source text: as §3, §4

K562 = experiment: DNS cytotoxicity assay, K562; format: cell-based; details: Homo sapiens, Lymphoma-Leukemia, 48 hrs
Source text: as §3, §4

MiNO = experiment: DNS cytotoxicity assay, MiNO; format: cell-based; details: Homo sapiens, Mantle cell Lymphoma, 48 or 72 hrs
Source text: as §3, §4

Jeko-1 = experiment: DNS cytotoxicity assay, Jeko-1; format: cell-based; details: Homo sapiens, Mantle cell Lymphoma, 48 or 72 hrs
Source text: as §3, §4

Z138 = experiment: DNS cytotoxicity assay, Z138; format: cell-based; details: Homo sapiens, Z-138; Mantle cell Lymphoma; 48 or 72 hrs
Source text: as §3, §4

JVM-2 = experiment: DNS cytotoxicity assay, JVM-2; format: cell-based; details: Homo sapiens, Mantle cell Lymphoma, 48 or 72 hrs
Source text: as §3, §4

JVM-13 = experiment: DNS cytotoxicity assay, JVM-13; format: cell-based; details: Homo sapiens, JVM13; Mantle cell Lymphoma; 48 or 72 hrs
Source text: as §3, §4

MM.1S = experiment: DNS cytotoxicity assay, MM.1S; format: cell-based; details: Homo sapiens, MM1.S; Multiple Myeloma; 48 or 72 hrs
Source text: as §3, §4

MM.1R = experiment: DNS cytotoxicity assay, MM.1R; format: cell-based; details: Homo sapiens, Multiple Myeloma, 48 or 72 hrs
Source text: as §3, §4

U226 = experiment: DNS cytotoxicity assay, U226; format: cell-based; details: Homo sapiens, Multiple Myeloma, 48 or 72 hrs
Source text: as §3, §4

RPMI-8226 = experiment: DNS cytotoxicity assay, RPMI-8226; format: cell-based; details: Homo sapiens, Multiple Myeloma, 48 or 72 hrs
Source text: as §3, §4

MDA-468 = experiment: DNS cytotoxicity assay, MDA-468; format: cell-based; details: Homo sapiens; Breat Cancer; 72 hrs
Source text: as §3, §4

HCC1419 = experiment: DNS cytotoxicity assay, HCC1419; format: cell-based; details: Homo sapiens, Breat Cancer, 72 hrs
Source text: as §3, §4

T47D = experiment: DNS cytotoxicity assay, T47D; format: cell-based; details: Homo sapiens, Breat Cancer, 72 hrs
Source text: as §3, §4

PANC-1 = experiment: DNS cytotoxicity assay, PANC-1; format: cell-based; details: Homo sapiens, Pancreatic cancer, 72 hrs
Source text: as §3, §4

Colo 205 = experiment: DNS cytotoxicity assay, Colo 205; format: cell-based; details: Homo sapiens, Colon Cancer, 72 hrs
Source text: as §3, §4

CEM cells [2] = experiment: Phosphatidylserine externalization, Annexin V-FITC/PI assay; format: cell-based, human; details: CC50 and 2×CC50 (0.24 and 0.48 μM printed), vs solvent control
Method: FIG. 1. […] CEM cells were treated at the CC50 and twice (2×) that concentration of SSK-3. Note that PS externalization is an early marker of apoptosis. * Indicates P value less than 0.001.
SSK-3 induces significant phosphatidylserine externalization. To corrobotate whether SSK-3 utilizes apoptosis to induce cell death, we measured phosphatidylserine (PS) externalization in SSK-3-treated CEM cells by using the Annexin V-FITC/PI assay (3, 4).

CEM cells [3] = experiment: Mitochondrial depolarization; format: cell-based, human; details: CC50 and 2×CC50
Method: (§5) FIG. 2A-2C. […] CEM cells were treated at the CC50 and twice (2×) that concentration of SSK-3.
(§6) SSK-3 induces caspase-3 activation. Mitochondrial depolarization is one of the salient features of cell-death induction and this was observed after treatment of CEM cells with SSK-3 (FIG. 2A). […] CEM cells were treated with SSK-3 for 7 h and subsequently stained with the NucView caspase-3 substrate and analyzed via flow cytometry (Gutierrez et al., Cell biology and toxicology 35, 503-19, 2019) (FIG. 2B).

caspase-3 in CEM cells = experiment: Caspase-3 activation, NucView substrate, flow cytometry; format: cell-based, human; details: 7 h, P<0.05 vs DMSO control
Method: as §5, §6

CEM cells [4] = experiment: Generation of Reactive Oxygen Species; format: cell-based, human; details: CC50 and 2×CC50
[5] = system: membrane microtubule organization; experiment: Membrane microtubule organization; format: cell-based; details: 2 hours; vs DMSO control
cell cycle = experiment: Cell cycle arrest; format: cell-based; details: data not shown
Tubulin = Tubulin polymerization, biochemical assays
HL-60 leukemia cell line = experiment: Apoptosis induction in HL-60; format: cell-based
CEM cells [6] = experiment: Mode of cell death: intrinsic apoptosis pathway; format: cell-based, human
Method: as §5
These compounds were tested in mice at a concentration of 160 mg/kg and after 3-4 daily doses, animals tolerated the treatments well. Different cytotoxicity patterns of the compounds against distinct cell lines has been noted, and it is therefore possible that distinct pyrazoles will act on distinct cellular effectors with different modes of action. However, all of the pyrazole compounds so far tested including SSK-3 induce cell death via the intrinsic apoptosis pathway as will be described below.

Question: What does the source list for `Cc1ccc2c(c1)/C(=N/NC(=O)c1n[nH]c3c1CCC3)C(=O)N2` [SSK-3, N-(5-methyl-2-oxoindolin-3ylidene)-1,4,5,6-tetrahydrocyclopenta[c]pyrazole-3-carbohydrazide]?
Answer: CC50 (CEM cell line; Homo sapiens, CCRF-CEM, 48 h, Table 4, Lymphoma-Leukemia, 48 hrs, read-out: CC50 CEM): 1400 nM; CC50 (CEM cell line; Initial Screen, DNS assay, read-out: CEM CC50): 1390 ± 680 nM; CC50 (MDA-MB231): 2300 nM; CC50 at 72 h [1]: 15400 nM; CC50 (RAMOS): 1650 nM; CC50 (HL-60): 750 nM; times more cytotoxic toward Jurkat than HS27 (Jurkat; CC50 HS27 / CC50 Jurkat): 37 times; CC50 (Jurkat; Homo sapiens, Jurkat, Lymphoma-Leukemia, 48 hrs): 420 nM; CC50 (NALM-6): 2040 nM; CC50 (K562): 2130 nM; CC50 (MiNO): 1070 nM; CC50 (Jeko-1): 1240 nM; CC50 (Z138): 3360 nM; CC50 (JVM-2): 790 nM; CC50 (JVM-13): 790 nM; CC50 (MM.1S): 4610 nM; CC50 (MM.1R): 3880 nM; CC50 (U226): 4440 nM; CC50 (RPMI-8226): 2470 nM; CC50 (MDA-468): 3980 nM; CC50 (HCC1419): > 20000 nM; CC50 (T47D): 3870 nM; CC50 (PANC-1): 1860 nM; CC50 (Colo 205): 2430 nM; PS externalization (CEM cells [2]): induces significant PS externalization in a dose-response manner; also recorded: Induction of Phosphatidylserine (PS) externalization; Mitochondrial depolarization (CEM cells [3]): Mitochondrial depolarization was observed; caspase-3 activation (caspase-3 in CEM cells): induced a statistically significant activation of caspase-3; also recorded: Activation of Caspase 3 was detected; Generation of Reactive Oxygen Species (ROS) (CEM cells [4]): led to the generation of Reactive Oxygen Species (ROS); disruption of membrane microtubule organization [5]: severe disruption of membrane microtubule organization; cell cycle arrest (cell cycle): cause cell cycle arrest and interfere with cellular replication; Tubulin polymerization inhibition (Tubulin): inhibiting tubulin polymerization; induction of apoptosis (HL-60 leukemia cell line): induced apoptosis via mitochondrial depolarization and phosphatidylserine membrane exposure; induction of the intrinsic apoptosis pathway (CEM cells [6]): induces the intrinsic apoptosis pathway
